From patent publication US7709507B2 (Allergan, Inc., priority 2006, dated 2010)

Tests used:
Type in all cases: cell-based
alpha2B receptor = target: T1, alpha2B receptor (Homo sapiens, UniProt P18089); assay: Receptor Selection and Amplification Technology (RSAT) assay, Alpha 2B; settings: for EC50: RSAT, transfected NIH-3T3 cells with Gq/i5, not active = at concentrations less than 10 micromolar, read-out: Alpha 2B EC50; for Alpha 2B IA (intrinsic activity): ratio of maximal effect to that of standard full agonist brimonidine (UK14304)
T1 construct: expressed in transfected cells; host or cells: NIH-3T3 cells
T1 sequence (P18089 1-450): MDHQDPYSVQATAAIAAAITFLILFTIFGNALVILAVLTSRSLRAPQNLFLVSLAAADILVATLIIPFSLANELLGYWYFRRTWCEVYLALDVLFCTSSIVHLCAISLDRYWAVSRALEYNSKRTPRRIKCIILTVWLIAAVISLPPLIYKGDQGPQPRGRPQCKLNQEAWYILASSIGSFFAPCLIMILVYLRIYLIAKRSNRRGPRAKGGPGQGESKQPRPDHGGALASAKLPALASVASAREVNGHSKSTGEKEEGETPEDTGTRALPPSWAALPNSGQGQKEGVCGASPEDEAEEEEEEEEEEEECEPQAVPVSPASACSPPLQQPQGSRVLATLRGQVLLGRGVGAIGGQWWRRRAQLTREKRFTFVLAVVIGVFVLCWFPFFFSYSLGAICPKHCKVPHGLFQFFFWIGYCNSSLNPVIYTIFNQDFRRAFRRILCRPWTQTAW
Protocol: (§1) Receptor Selection and Amplification Technology (RSAT) Assay
(§2) The RSAT assay measures a receptor-mediated loss of contact inhibition that results in selective proliferation of receptor-containing cells in a mixed population of confluent cells. The increase in cell number is assessed with an appropriate transfected marker gene such as β-galactosidase, the activity of which can be easily measured in a 96-well format. Receptors that activate the G protein, Gq, elicit this response. Alpha2 receptors, which normally couple to Gi, activate the RSAT response when coexpressed with a hybrid Gq protein that has a Gi receptor recognition domain, called Gq/i5.
(§3) NIH-3T3 cells are plated at a density of 2×10^6 cells in 15 cm dishes and maintained in Dulbecco's modified Eagle's medium supplemented with 10% calf serum. One day later, cells are cotransfected by calcium phosphate precipitation with mammalian expression plasmids encoding p-SV-β-galactosidase (5-10 μg), receptor (1-2 μg) and G protein (1-2 μg). 40 μg salmon sperm DNA may also be included in the transfection mixture. Fresh media is added on the following day and 1-2 days later, cells are harvested and frozen in 50 assay aliquots. Cells are thawed and 100 μl added to 100 μl aliquots of various concentrations of drugs in triplicate in 96-well dishes. Incubations continue 72-96 hr at 37° C. After washing with phosphate-buffered saline, β-galactosidase enzyme activity is determined by adding 200 μl of the chromogenic substrate (consisting of 3.5 mM o-nitrophenyl-β-D-galactopyranoside and 0.5% nonidet P-40 in phosphate buffered saline), incubating overnight at 30° C. and measuring optical density at 420 nm. The absorbance is a measure of enzyme activity, which depends on cell number and reflects a receptor-mediated cell proliferation. The efficacy or intrinsic activity is calculated as a ratio of the maximal effect of the drug to the maximal effect of a standard full agonist for each receptor subtype. Brimonidine, also called UK14304, the chemical structure of which is shown below, is used as the standard agonist for the alpha2A, alpha2B and alpha2C receptors. The EC50 is the concentration at which the drug effect is half of its maximal effect.
The results of the RSAT assay with several exemplary compounds of the invention are disclosed in Table 1 above together with the chemical formulas of these exemplary compounds. EC50 values are nanomolar. NA stands for “not active” at concentrations less than 10 micromolar. IA stands for “intrinsic activity.”

alpha2A receptor = target: T2, alpha2A receptor (Homo sapiens, UniProt P08913); assay: Receptor Selection and Amplification Technology (RSAT) assay, Alpha 2A; settings: for Alpha 2A EC50 / EC50: RSAT, transfected NIH-3T3 cells with Gq/i5, not active = at concentrations less than 10 micromolar; for EC50: read-out: Alpha 2A EC50; for Alpha 2A IA (intrinsic activity): ratio of maximal effect to that of standard full agonist brimonidine (UK14304)
T2 construct: expressed in transfected cells; host or cells: NIH-3T3 cells
T2 sequence (P08913 1-465): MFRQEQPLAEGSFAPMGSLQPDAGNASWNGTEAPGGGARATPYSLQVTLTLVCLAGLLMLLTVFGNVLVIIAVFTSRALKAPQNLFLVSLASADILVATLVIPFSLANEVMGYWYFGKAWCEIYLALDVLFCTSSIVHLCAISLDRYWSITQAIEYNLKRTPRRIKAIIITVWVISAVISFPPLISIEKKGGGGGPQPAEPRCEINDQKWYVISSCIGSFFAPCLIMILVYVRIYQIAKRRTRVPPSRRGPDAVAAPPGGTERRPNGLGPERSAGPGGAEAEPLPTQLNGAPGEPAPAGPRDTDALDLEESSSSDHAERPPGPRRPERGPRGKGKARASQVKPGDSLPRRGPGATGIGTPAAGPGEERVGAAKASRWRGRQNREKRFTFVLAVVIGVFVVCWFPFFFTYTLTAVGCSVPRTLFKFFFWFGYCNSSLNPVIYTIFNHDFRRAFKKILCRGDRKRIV
Protocol: as §1, §2
as §3, with “Fresh media is added on the following day and 1-2 days later, cells are harvested and frozen in 50 assay aliquots.” left out
(§4) EC50 values are nanomolar. NA stands for “not active” at concentrations less than 10 micromolar. IA stands for “intrinsic activity.”

alpha2C receptor = target: T3, alpha2C receptor (Homo sapiens, UniProt P18825); assay: Receptor Selection and Amplification Technology (RSAT) assay, Alpha 2C
T3 construct: expressed in transfected cells; host or cells: NIH-3T3 cells
T3 sequence (P18825 1-462): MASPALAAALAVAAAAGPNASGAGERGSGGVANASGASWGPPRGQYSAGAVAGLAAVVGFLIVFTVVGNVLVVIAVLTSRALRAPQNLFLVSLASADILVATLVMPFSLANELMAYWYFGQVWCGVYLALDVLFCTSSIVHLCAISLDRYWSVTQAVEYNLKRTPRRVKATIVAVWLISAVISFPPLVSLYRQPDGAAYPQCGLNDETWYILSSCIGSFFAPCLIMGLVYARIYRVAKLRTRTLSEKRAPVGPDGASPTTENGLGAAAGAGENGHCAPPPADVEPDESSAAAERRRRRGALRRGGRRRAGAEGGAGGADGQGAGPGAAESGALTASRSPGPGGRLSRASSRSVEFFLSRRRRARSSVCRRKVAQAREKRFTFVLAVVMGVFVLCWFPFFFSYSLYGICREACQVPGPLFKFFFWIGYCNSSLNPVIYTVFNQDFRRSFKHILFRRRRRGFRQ
Protocol: as §1, §2
as §3, with “Fresh media is added on the following day and 1-2 days later, cells are harvested and frozen in 50 assay aliquots.” left out
as §4

[1] = RSAT, transfected NIH-3T3 cells with Gq/i5, not active = at concentrations less than 10 micromolar

Compound	EC50 (alpha2B receptor)	Alpha 2B IA (intrinsic activity) (alpha2B receptor)	Alpha 2A EC50 (alpha2A receptor)	Alpha 2C EC50 (alpha2C receptor; [1])	EC50 (alpha2A receptor)	Alpha 2A IA (intrinsic activity) (alpha2A receptor)	EC50 (alpha2C receptor; RSAT, transfected NIH-3T3 cells with Gq/i5, not active = at concentrations less than 10 micromolar, read-out: Alpha 2C EC50)	Alpha 2C IA (intrinsic activity) (alpha2C receptor; ratio of maximal effect to that of standard full agonist brimonidine (UK14304))
O=C(NCCF)NC(Cc1ccccc1)c1ccc(Cl)cc1 (stereo not drawn)	177 nM	0.55	not active	not active				
Cc1cccc(C(Cc2ccsc2)NC(=O)NCCF)c1 (stereo not drawn) [1-(2-Fluoro-ethyl)-3-(2-thiophen-3-yl-1-m-tolyl-ethyl)-urea]	63.4 nM	1.0	not active	not active				
COc1ccccc1C(Cc1ccccc1)NC(=O)NCCF (stereo not drawn) [1-(2-fluoroethyl)-3-[1-(2-methoxyphenyl)-2-phenylethyl]urea]	51.2 nM	0.88	not active				78.9 nM	0.42
O=C(NCCF)NC(Cc1cccc(F)c1)c1cccc(C(F)(F)F)c1 (stereo not drawn) [1-(2-fluoro-ethyl)-3-[2-(3-fluoro-phenyl)-1-(3-trifluoromethyl-phenyl)-ethyl]-urea]	84.2 nM	0.84	not active	not active				
O=C(NCCF)NC(Cc1ccccc1)c1ccc(F)cc1 (stereo not drawn)	299 nM	0.71	not active	not active				
O=C(NCCF)NC(Cc1ccccc1)c1cccc(Cl)c1F (stereo not drawn) [1-[1-(3-chloro-2-fluorophenyl)-2-phenylethyl]-3-(2-fluoroethyl)urea]	138 nM	1.0	not active	not active				
O=C(NCCF)NC(Cc1ccccc1)c1ccc(Cl)c(Cl)c1 (stereo not drawn) [1-[1-(3,4-dichlorophenyl)-2-phenylethyl]-3-(2-fluoroethyl)urea]	488 nM	0.69	not active	not active				
O=C(NCCF)NC(Cc1cccc(F)c1)c1ccccc1 (stereo not drawn) [N-(2-fluoroethyl)-N′-[2-(3-fluorophenyl)-1-phenylethyl]urea]	26 nM	0.95	not active	not active				
Cc1cccc(C(Cc2ccc(F)cc2)NC(=O)NCCF)c1 (stereo not drawn)	42.9 nM	0.88	not active	not active				
O=C(NCCF)NC(Cc1ccccc1)c1cccc2ccccc12 (stereo not drawn) [1-(2-fluoroethyl)-3-[1-(1-naphthyl)-2-phenylethyl]urea]	160 nM	0.77	not active	not active				

More lines, main results first:

EC50 (alpha2B receptor)	Alpha 2B IA (intrinsic activity) (alpha2B receptor)	Alpha 2A EC50 (alpha2A receptor)	Alpha 2C EC50 (alpha2C receptor; [1])	EC50 (alpha2A receptor)	Alpha 2A IA (intrinsic activity) (alpha2A receptor)	Compound	EC50 (alpha2C receptor; RSAT, transfected NIH-3T3 cells with Gq/i5, not active = at concentrations less than 10 micromolar, read-out: Alpha 2C EC50)	Alpha 2C IA (intrinsic activity) (alpha2C receptor; ratio of maximal effect to that of standard full agonist brimonidine (UK14304))
611 nM	1.02	not active	not active			O=C(NCCF)NC(Cc1cc(F)ccc1F)c1cccnc1 (stereo not drawn) [1-[2-(2,5-difluoro-phenyl)-1-pyridin-3-yl-ethyl]-3-(2-fluoro-ethyl)-urea]		
173 nM	0.86	not active	not active			O=C(NCCF)NC(Cc1ccccc1)c1cccc(Br)c1 (stereo not drawn) [1-[1-(3-Bromophenyl)-2-phenylethyl]-3-(2-fluoroethyl)urea]		
51.3 nM	0.93	not active	not active			O=C(NCCF)NC(Cc1ccc(F)cc1)c1ccccc1 (stereo not drawn) [1-(2-fluoroethyl)-3-[2-(4-fluorophenyl)-1-phenylethyl]urea]		
5.99 nM	0.9		not active	70.4 nM	0.35	Cc1cccc(CC(NC(=O)NCCF)c2cccc(Cl)c2)c1 (stereo not drawn) [1-[1-(3-chloro-phenyl)-2-m-tolyl-ethyl]-3-(2-fluoro-ethyl)-urea]		
2780 nM	0.49	not active	not active			O=C(NCCF)NC(Cc1ccc(F)cc1)c1cccnc1 (stereo not drawn) [1-(2-fluoro-ethyl)-3-[2-(4-fluoro-phenyl)-1-pyridin-3-yl-ethyl]-urea]		
218 nM	0.53	not active	not active			Cc1ccc(C(Cc2ccccc2)NC(=O)NCCF)cc1 (stereo not drawn) [1-(2-fluoroethyl)-3-[1-(4-methylphenyl)-2-phenylethyl]urea]		
12.9 nM	0.96	not active	not active			O=C(NCCF)NC(Cc1ccccc1F)c1ccccc1 (stereo not drawn) [1-(2-fluoroethyl)-3-[2-(2-fluorophenyl)-1-phenylethyl]urea]		
30.7 nM	1.32		not active	368 nM	0.57	O=C(NCCF)NC(Cc1ccncc1)c1cccc(Cl)c1 (stereo not drawn) [1-[1-(3-chloro-phenyl)-2-pyridin-4-yl-ethyl]-3-(2-fluoro-ethyl)-urea]		
